Reference: the supplement of paper PMC11061612

Experiments:
Assay in all cases: Bliss excess, mean over the matrix (fraction); higher = more synergy
[1] = tested on: CAMA-1 (Breast Carcinoma)
In short: (§1)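 Cell lines grown in DMEM/F12 or RPMI with 10% FBS were plated in 1536-well plates and held 24 hours at 37°C, 5% CO2 before 72 hours of exposure to two-drug dose matrices, with DMSO typically at 0.2%. CellTiter-Glo 2.0 luminescence gave viability, which was converted to inhibition. Vehicle wells were set to 0 and blank wells to 1. Combination Emax is the second-highest inhibition in the matrix, and Bliss excess is the observed combination effect minus the expected EA + EB − EA·EB, where EA and EB are the single-agent effects.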

[2] = tested on: NCI-H847 (Small Cell Lung Carcinoma)
In short: as §1

NCI-H2818 (Mesothelioma) = tested on: NCI-H2818 (Mesothelioma)
In short: as §1

[3] = tested on: DiFi (Colorectal Carcinoma)
In short: as §1

[4] = tested on: MFM-223 (Breast Carcinoma)
In short: as §1

[5] = tested on: COLO-678 (Colorectal Carcinoma)
In short: as §1

[6] = tested on: L-540 (Hodgkin's Lymphoma)
In short: as §1

[7] = tested on: SU-DHL-8 (B-Cell Non-Hodgkin's Lymphoma)
In short: as §1

[8] = tested on: HDQ-P1 (Breast Carcinoma)
In short: as §1

[9] = tested on: SW837 (Colorectal Carcinoma)
In short: as §1

MEL-JUSO (Melanoma) = tested on: MEL-JUSO (Melanoma)
In short: as §1

WM-115 (Melanoma) = tested on: WM-115 (Melanoma)
In short: as §1

[10] = tested on: MKN28 (Gastric Carcinoma)
In short: as §1

[11] = tested on: KCL-22 (Chronic Myelogenous Leukemia)
In short: as §1

[12] = tested on: EVSA-T (Breast Carcinoma)
In short: as §1

[13] = tested on: KARPAS-45 (T-Lymphoblastic Leukemia)
In short: as §1

[14] = tested on: SW1417 (Colorectal Carcinoma)
In short: as §1

[15] = tested on: TE-6 (Esophageal Squamous Cell Carcinoma)
In short: as §1

[16] = tested on: BL-41 (Burkitt's Lymphoma)
In short: as §1

[17] = tested on: P12-ICHIKAWA (T-Lymphoblastic Leukemia)
In short: as §1

Compound | Bliss excess [1] | Bliss excess [2] | Bliss excess (NCI-H2818 (Mesothelioma)) | Bliss excess [3] | Bliss excess [4] | Bliss excess [5] | Bliss excess [6] | Bliss excess [7] | Bliss excess [8] | Bliss excess [9] | Bliss excess (MEL-JUSO (Melanoma)) | Bliss excess (WM-115 (Melanoma)) | Bliss excess [10] | Bliss excess [11] | Bliss excess [12] | Bliss excess [13] | Bliss excess [14] | Bliss excess [15] | Bliss excess [16] | Bliss excess [17]
CN(C)CCCOc1ccc(-c2ccc3ncc4c(c3c2)n(C2CCOCC2)c(=O)n4C)cn1 [AZD0156] + C=CCn1c(=O)c2cnc(Nc3ccc(N4CCN(C)CC4)cc3)nc2n1-c1cccc(C(C)(C)O)n1 [AZD1775] (first compound max 1 µM, partner max 1 µM) | -0.0726 | -0.0114 | -0.0556 | -0.0013 | -0.0282 | -0.0197 | 0.0604 | 0.0032 | 0.0118 | -0.0431 | 0.0243 | -0.0383 | -0.0875 | -0.0326 | -0.0618 | -0.0182 | -0.0213 | -0.045 | 0.0047 | –
CN(C)CCCOc1ccc(-c2ccc3ncc4c(c3c2)n(C2CCOCC2)c(=O)n4C)cn1 [AZD0156] + CCN(CCO)CCCOc1ccc2c(Nc3cc(CC(=O)Nc4cccc(F)c4)[nH]n3)ncnc2c1 [AZD2811] (first compound max 1 µM, 7x7, partner max 1 µM) | -0.0318 | -0.0122 | -0.0491 | -0.0363 | 0.0113 | -0.0179 | 0.0074 | 0.0377 | -0.0634 | -0.0263 | -0.0039 | -0.0368 | -0.0295 | 0.0703 | 0.0104 | -0.0515 | -0.0418 | 0.0127 | 0.0177 | –
Cc1nc(Nc2ncc(C(=O)Nc3c(C)cccc3Cl)s2)cc(N2CCN(CCO)CC2)n1 [Dasatinib] + CC(=O)Nc1cccc(-n2c(=O)n(C3CC3)c(=O)c3c(Nc4ccc(I)cc4F)n(C)c(=O)c(C)c32)c1 [Trametinib] (first compound max 2 µM, 7x7, partner max 1 µM) | -0.0382 | – | -0.0109 | -0.0465 | -0.0546 | -0.0945 | -0.0484 | -0.0242 | -0.0033 | 0.0448 | -0.0878 | 0.118 | 0.0027 | -0.0501 | -0.0361 | 0.0017 | 0.131 | -0.0255 | 0.0075 | 0.0326
COc1cc2ncnc(Nc3ccc(F)c(Cl)c3)c2cc1OCCCN1CCOCC1 [Gefitinib] + CC(C)n1c(=O)n(C)c2cnc3cc(F)c(-c4ccc(OCCCN5CCCCC5)nc4)cc3c21 [AZD1390] (first compound max 10 µM, 7x7, partner max 0.3 µM) | -0.0434 | – | -0.0707 | -0.0882 | -0.0681 | -0.111 | -0.0591 | -0.0157 | -0.114 | -0.06 | -0.0857 | -0.0856 | -0.0498 | -0.0573 | -0.0306 | -0.0543 | -0.0456 | -0.117 | 0.003 | -0.0152
CS(=O)(=O)CCNCc1ccc(-c2ccc3ncnc(Nc4ccc(OCc5cccc(F)c5)c(Cl)c4)c3c2)o1 [Lapatinib] + C[C@@H](Oc1cc(-c2cnn(C3CCNCC3)c2)cnc1N)c1c(Cl)ccc(F)c1Cl [Crizotinib] (first compound max 10 µM, 7x7, partner max 10 µM) | -0.0178 | – | -0.0019 | 0.0187 | 0.0148 | -0.0488 | -0.0731 | 0.0546 | -0.0144 | -0.0345 | -0.034 | -0.0237 | -0.0477 | 0.0178 | -0.0359 | 0.0044 | -0.0165 | -0.0111 | -0.0236 | -0.0077
CC(=O)c1c(C)c2cnc(Nc3ccc(N4CCNCC4)cn3)nc2n(C2CCCC2)c1=O [Palbociclib] + CC1(C)CCC(CN2CCN(c3ccc(C(=O)NS(=O)(=O)c4ccc(NCC5CCOCC5)c([N+](=O)[O-])c4)c(Oc4cnc5[nH]ccc5c4)c3)CC2)=C(c2ccc(Cl)cc2)C1 [Venetoclax] (first compound max 10 µM, 7x7, partner max 1 µM) | -0.0381 | – | -0.0146 | 0.0239 | 0.0031 | 0.0158 | -0.0852 | -0.0096 | -0.0555 | -0.0671 | -0.0309 | -0.0708 | -0.0461 | 0.0057 | 0.0048 | 0.0598 | -0.0267 | -0.0255 | -0.0842 | -0.0157
CC(=O)c1c(C)c2cnc(Nc3ccc(N4CCNCC4)cn3)nc2n(C2CCCC2)c1=O [Palbociclib] + Cc1c2c(nn1C)CSCc1cc(n(C)n1)CSc1cc(c3ccccc3c1)OCCCc1c(C(=O)O)n(C)c3c-2c(Cl)ccc13 [AZD5991] (first compound max 10 µM, 7x7, partner max 1 µM) | -0.0525 | – | -0.0386 | -0.0139 | -0.0784 | -0.0814 | -0.0063 | -0.22 | -0.0396 | -0.0582 | -0.103 | -0.0282 | -0.0385 | 0.0403 | -0.117 | -0.0071 | -0.0089 | -0.0272 | -0.0691 | -0.0467
CC(=O)c1c(C)c2cnc(Nc3ccc(N4CCNCC4)cn3)nc2n(C2CCCC2)c1=O [Palbociclib] + Cn1cnc2c(F)c(Nc3ccc(Br)cc3Cl)c(C(=O)NOCCO)cc21 [Selumetinib] (first compound max 10 µM, 7x7, partner max 10 µM) | -0.027 | – | -0.0013 | 0.0274 | 0.0341 | -0.071 | -0.071 | 0.0147 | -0.0555 | 0.0075 | 0.0028 | -0.0126 | 0.0275 | -0.0021 | -0.0035 | 0.0636 | -0.0094 | 0.0172 | -0.0131 | 0.138
CCc1c2c(nc3ccc(O)cc13)-c1cc3c(c(=O)n1C2)COC(=O)[C@]3(O)CC [SN-38] + O=C(c1cc(Cc2n[nH]c(=O)c3ccccc23)ccc1F)N1CCN(C(=O)C2CC2)CC1 [Olaparib] (first compound max 0.3 µM, 7x7, partner max 10 µM) | 0.0287 | 0.0304 | 0.0548 | 0.0423 | 0.0054 | 0.0487 | 0.0196 | – | 0.025 | 0.0302 | – | 0.0847 | 0.0385 | 0.0525 | 0.0738 | – | 0.0174 | – | 0.0462 | –
C[C@@H](c1ccc2nccn2c1)n1nnc2ncc(-c3cnn(C)c3)nc21 [Savolitinib] + CC1(C)CCC(CN2CCN(c3ccc(C(=O)NS(=O)(=O)c4ccc(NCC5CCOCC5)c([N+](=O)[O-])c4)c(Oc4cnc5[nH]ccc5c4)c3)CC2)=C(c2ccc(Cl)cc2)C1 [Venetoclax] (first compound max 1 µM, 7x7, partner max 1 µM) | -0.0211 | – | -0.0411 | -0.0468 | -0.0414 | -0.112 | 0.0201 | -0.0419 | -0.085 | -0.0813 | -0.0919 | -0.0346 | -0.0464 | -0.0352 | -0.0269 | -0.017 | -0.0509 | -0.0559 | -0.0365 | -0.0414
C[C@@H](c1ccc2nccn2c1)n1nnc2ncc(-c3cnn(C)c3)nc21 [Savolitinib] + Cc1c2c(nn1C)CSCc1cc(n(C)n1)CSc1cc(c3ccccc3c1)OCCCc1c(C(=O)O)n(C)c3c-2c(Cl)ccc13 [AZD5991] (first compound max 1 µM, 7x7, partner max 1 µM) | -0.0136 | – | -0.0343 | -0.0321 | -0.0228 | -0.0899 | -0.0054 | -0.0425 | -0.0456 | -0.0644 | -0.0269 | -0.037 | -0.045 | -0.0134 | -0.0233 | -0.0264 | -0.0228 | -0.0541 | -0.0318 | 0.02
Cn1cnc2c(F)c(Nc3ccc(Br)cc3Cl)c(C(=O)NOCCO)cc21 [Selumetinib] + C=CCn1c(=O)c2cnc(Nc3ccc(N4CCN(C)CC4)cc3)nc2n1-c1cccc(C(C)(C)O)n1 [AZD1775] (first compound max 10 µM, partner max 1 µM) | -0.0309 | – | -0.0498 | 0.0233 | -0.0831 | 0.0011 | -0.0374 | -0.0846 | -0.0453 | -0.0207 | -0.0388 | -0.0731 | -0.0192 | 0.0242 | -0.015 | 0.0001 | 0.0387 | 0.0165 | -0.0162 | 0.0595
Cn1cnc2c(F)c(Nc3ccc(Br)cc3Cl)c(C(=O)NOCCO)cc21 [Selumetinib] + CC(C)n1c(=O)n(C)c2cnc3cc(F)c(-c4ccc(OCCCN5CCCCC5)nc4)cc3c21 [AZD1390] (first compound max 10 µM, 7x7, partner max 0.3 µM) | -0.0429 | – | -0.0237 | 0.0004 | -0.033 | -0.0409 | -0.0407 | -0.0201 | -0.0456 | -0.0343 | -0.0291 | -0.0442 | -0.0463 | 0.0847 | -0.0185 | -0.026 | -0.0094 | -0.0528 | 0.0029 | 0.0544
Cn1cnc2c(F)c(Nc3ccc(Br)cc3Cl)c(C(=O)NOCCO)cc21 [Selumetinib] + CCN(CCO)CCCOc1ccc2c(Nc3cc(CC(=O)Nc4cccc(F)c4)[nH]n3)ncnc2c1 [AZD2811] (first compound max 10 µM, 7x7, partner max 1 µM) | -0.0227 | – | -0.0106 | 0.0371 | -0.0363 | -0.0223 | -0.0634 | -0.0216 | -0.0538 | -0.0311 | -0.0206 | -0.042 | -0.0317 | 0.0941 | 0.0097 | -0.0434 | 0.058 | -0.0282 | 0.0338 | 0.0216
Cn1cnc2c(F)c(Nc3ccc(Br)cc3Cl)c(C(=O)NOCCO)cc21 [Selumetinib] + C[C@@H]1COCCN1C2=NC(=NC(=C2)C3(CC3)[S@](=N)(=O)C)C4=C5C=CNC5=NC=C4 [AZD6738] (first compound max 10 µM, 7x7, partner max 10 µM) | -0.0506 | – | -0.0144 | 0.0092 | -0.0412 | 0.132 | -0.0415 | -0.0454 | 0.0228 | -0.095 | 0.0935 | 0.0116 | -0.0316 | -0.0129 | -0.0377 | 0.0047 | 0.0363 | 0.0221 | -0.0299 | 0.0286
